Legend:
P. putida KT2440 = assay: Growth in the presence of the benzoate substrate analogues 3-FB or 3-CIB; type: cell-based; settings: MM with 10 mM succinate and 1 mM benzoate, increasing concentrations; 3-FB as compared to 3-CIB
Description: To determine the optimal concentrations of the substrate analogues, P. putida KT2440 was grown in MM with 10 mM succinate and 1 mM benzoate in the presence of increasing concentrations of 3-FB or 3-CIB. The accumulation of fluorocatechol derivatives is known to result in a violet coloration of the medium. When P. putida KT2440 was exposed to 3-FB or 3-CIB a violet coloration of the medium was observed. […] Therefore, two independent batch cultures of NTG-treated P. putida KT2440 cells were cultivated in the presence of 20 mM 3-FB. Batch culture 1 was grown for 14 hours and batch culture 2 for 24 hours, after which the cultures were plated. Individual colonies were screened for their ability to grow with benzoate as the sole source of carbon and energy. Three mutants that could no longer grow using benzoate were isolated from batch 1 and 84 mutants were isolated from batch 2, which represented 0.1 % and 4.4 %, respectively, of the total amount of colonies that were screened. No mutants were found when the NTG-treated P. putida KT2440 cells were not exposed to 3-FB. All mutants accumulated cis, cis-muconate in the medium when grown with succinate in the presence of benzoate. Therefore, the disability of the further conversion of 2-fluoro-cis, cis-muconate by the muconate lactonizing enzyme seems to have caused the selective advantage. […]

[1] = molecular target: T1, catA2 (catechol 1,2-dioxygenase) (Pseudomonas putida, UniProt Q88I35); assay: catA2 activity assay: increase in cis, cis-muconate from catechol measured at A256 with purified His-tagged enzyme; type: biochemical, P. putida KT2440
T1 sequence (Q88I35 1-304): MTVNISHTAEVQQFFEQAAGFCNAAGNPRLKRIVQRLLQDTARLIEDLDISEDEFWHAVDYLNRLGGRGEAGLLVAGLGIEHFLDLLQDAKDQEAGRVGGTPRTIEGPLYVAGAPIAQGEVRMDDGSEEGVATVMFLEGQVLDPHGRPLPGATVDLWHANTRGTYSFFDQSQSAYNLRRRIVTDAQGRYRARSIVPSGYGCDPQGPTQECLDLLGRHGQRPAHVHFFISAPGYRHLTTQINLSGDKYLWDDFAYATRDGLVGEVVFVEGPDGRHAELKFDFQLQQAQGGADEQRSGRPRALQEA
Source text: (§1) Gene catA2 was amplified from the genome of P. putida KT2440 by PCR using the forward primer 5'- […]-'3 (SEQ ID No. 7) and the reverse primer 5'-[…]-'3 (SEQ ID No. 8) containing a NdeI and XhoI site, respectively. The PCR fragment was ligated into the pET-28a(+) expression vector (Novagen, USA). The catA2 insert was controlled by sequencing after amplification with the T7 and T7 term primer set (Eurofins MWG GmbH, Germany).
(§2) pET-28a(+) with and without the catA2 insert were electro transformed into E. coli BLN21 and plated on LB with kanamycin (50 µg/mL). Transformants containing the plasmid with and without catA2 were grown overnight in 25 mL LB with kanamycin (50 µg/mL) at 37 °C with shaking. […] The purification of CatA2 was monitored with SDS-PAGE and Westernblotting using His-Tag antibodies (Abcam, U. K.).
(§3) The activity of catA2 was assayed by measuring the increase in cis, cis-muconate concentration from catechol in a buffer containing 20 mM Tris-HCl, 0.125 M imidazole (pH 7.8) at A256 using an UV mc2® spectrophotometer (SAFAS, Monaco). In order to determine the km value of the enzyme, the conversion rate of catechol to cis, cis-muconate was measured at 10 different concentrations of catechol ranging between from 0.0001 to 0.05 mM. […] The values for Km, IC50, and Vmax were calculated by Graphpad Prism (Graphpad Software, Inc., USA).

[2] = substrate: Oc1ccccc1O; assay: as above; type: biochemical, P. putida KT2440; settings: other: substrate catechol, 0.0001 to 0.05 mM, 20 mM Tris-HCl, 0.125 M imidazole, pH 7.8, 37.0 °C
Source text: as §1, §2, §3

For `O=C(O)c1cccc(F)c1` [3-FB, 3-fluorobenzoate], the “Growth of P. putida KT2440” value (P. putida KT2440) was “more inhibited”.

With `O=C(O)/C=C\C=C/C(=O)O` [cis, cis-muconate] the IC50 ([1]; at a concentration of 0.05 mM catechol, cis, cis-muconate 0 to 0.2 mM) was 139 µM and the Ki ([1]; calculated from Km and IC50 using the Cheng-Prusoff equation) was 2800 nM.

B1: catA2 (catechol 1,2-dioxygenase) (Pseudomonas putida KT2440) (protein)
chain: MTVNISHTAEVQQFFEQAAGFCNAAGNPRLKRIVQRLLQDTARLIEDLDISEDEFWHAVDYLNRLGGRGEAGLLVAGLGIEHFLDLLQDAKDQEAGRVGGTPRTIEGPLYVAGAPIAQGEVRMDDGSEEGVATVMFLEGQVLDPHGRPLPGATVDLWHANTRGTYSFFDQSQSAYNLRRRIVTDAQGRYRARSIVPSGYGCDPQGPTQECLDLLGRHGQRPAHVHFFISAPGYRHLTTQINLSGDKYLWDDFAYATRDGLVGEVVFVEGPDGRHAELKFDFQLQQAQGGADEQRSGRPRALQEA
With B1 the Km [2] was 1000 nM.
